# Measurements as given in ChEMBL document CHEMBL5465560, “Selectivity Literature for EUbOPEN Chemogenomic Library” (2024).
# Legend:
# [1] = target: T1, Serine/threonine-protein kinase Nek1 (Homo sapiens) (UniProt Q96PY6); experiment: Selectivity interaction (KinomeScan (DiscoverX)) EUB0000655a NEK1; conditions: at 10 µM
# T1 sequence (whole entry): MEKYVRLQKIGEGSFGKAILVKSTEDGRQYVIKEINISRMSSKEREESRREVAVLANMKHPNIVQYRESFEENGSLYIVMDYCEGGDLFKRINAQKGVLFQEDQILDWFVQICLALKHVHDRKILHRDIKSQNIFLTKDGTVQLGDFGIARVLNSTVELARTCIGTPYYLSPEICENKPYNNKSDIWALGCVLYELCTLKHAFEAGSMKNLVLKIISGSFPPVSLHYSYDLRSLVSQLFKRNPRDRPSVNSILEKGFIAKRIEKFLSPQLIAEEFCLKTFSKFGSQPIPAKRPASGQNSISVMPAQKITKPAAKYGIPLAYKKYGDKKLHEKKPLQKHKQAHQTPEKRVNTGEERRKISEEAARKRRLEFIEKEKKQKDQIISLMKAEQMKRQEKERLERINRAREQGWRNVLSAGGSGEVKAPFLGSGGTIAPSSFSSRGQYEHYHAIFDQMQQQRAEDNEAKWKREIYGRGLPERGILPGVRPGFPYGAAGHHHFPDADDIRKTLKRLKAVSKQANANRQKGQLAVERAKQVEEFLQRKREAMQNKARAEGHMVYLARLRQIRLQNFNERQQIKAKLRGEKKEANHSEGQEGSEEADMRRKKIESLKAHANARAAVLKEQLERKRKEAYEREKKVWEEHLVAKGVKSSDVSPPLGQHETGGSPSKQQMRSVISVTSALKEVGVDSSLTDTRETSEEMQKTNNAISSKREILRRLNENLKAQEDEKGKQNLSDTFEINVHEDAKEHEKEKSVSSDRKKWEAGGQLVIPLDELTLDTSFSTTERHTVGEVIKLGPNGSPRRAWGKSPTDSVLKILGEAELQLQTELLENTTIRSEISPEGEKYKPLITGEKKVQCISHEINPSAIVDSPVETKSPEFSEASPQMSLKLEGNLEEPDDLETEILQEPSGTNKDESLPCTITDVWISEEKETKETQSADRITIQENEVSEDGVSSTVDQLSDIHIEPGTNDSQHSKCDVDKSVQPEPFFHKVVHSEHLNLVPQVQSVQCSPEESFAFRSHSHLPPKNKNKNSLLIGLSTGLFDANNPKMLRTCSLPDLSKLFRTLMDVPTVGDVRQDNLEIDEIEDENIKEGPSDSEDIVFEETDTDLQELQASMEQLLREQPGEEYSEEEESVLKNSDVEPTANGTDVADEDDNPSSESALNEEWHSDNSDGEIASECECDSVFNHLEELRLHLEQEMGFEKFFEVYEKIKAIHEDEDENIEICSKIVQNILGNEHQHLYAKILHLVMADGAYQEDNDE
# [2] = target: T2, Serine/threonine-protein kinase ULK1 (Homo sapiens) (UniProt O75385); experiment: Selectivity interaction (KinomeScan (DiscoverX)) EUB0001079a ULK1; conditions: at 1 µM
# T2 sequence (whole entry): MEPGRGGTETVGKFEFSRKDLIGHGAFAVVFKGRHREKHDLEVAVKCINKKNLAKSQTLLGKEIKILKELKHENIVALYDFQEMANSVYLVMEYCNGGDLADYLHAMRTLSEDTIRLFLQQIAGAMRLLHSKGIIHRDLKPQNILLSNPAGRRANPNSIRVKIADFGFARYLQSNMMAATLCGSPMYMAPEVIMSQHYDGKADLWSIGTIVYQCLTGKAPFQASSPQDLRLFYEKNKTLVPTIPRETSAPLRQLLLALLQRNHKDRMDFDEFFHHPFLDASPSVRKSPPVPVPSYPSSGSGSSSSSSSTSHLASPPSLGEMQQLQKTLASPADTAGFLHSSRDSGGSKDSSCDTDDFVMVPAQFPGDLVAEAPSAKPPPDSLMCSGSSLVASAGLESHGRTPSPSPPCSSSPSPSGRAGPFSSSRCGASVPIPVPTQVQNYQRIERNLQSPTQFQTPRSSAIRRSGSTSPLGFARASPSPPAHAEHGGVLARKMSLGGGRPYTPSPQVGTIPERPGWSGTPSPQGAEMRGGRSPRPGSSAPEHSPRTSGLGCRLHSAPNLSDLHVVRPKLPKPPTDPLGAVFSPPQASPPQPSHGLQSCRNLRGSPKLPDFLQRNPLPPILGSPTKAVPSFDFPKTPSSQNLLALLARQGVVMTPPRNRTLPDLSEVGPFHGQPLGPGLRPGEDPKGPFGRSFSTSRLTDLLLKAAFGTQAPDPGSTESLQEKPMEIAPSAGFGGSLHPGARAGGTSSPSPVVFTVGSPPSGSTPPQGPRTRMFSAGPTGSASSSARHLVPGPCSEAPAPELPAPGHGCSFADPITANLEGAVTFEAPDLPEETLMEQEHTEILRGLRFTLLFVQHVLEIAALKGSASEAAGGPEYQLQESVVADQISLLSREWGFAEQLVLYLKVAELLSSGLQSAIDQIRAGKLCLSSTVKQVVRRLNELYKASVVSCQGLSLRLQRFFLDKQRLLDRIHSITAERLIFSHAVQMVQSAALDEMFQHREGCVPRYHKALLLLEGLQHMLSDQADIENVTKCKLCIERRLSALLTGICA
# [3] = target: Wee1-like protein kinase (Homo sapiens) (UniProt P30291); experiment: Selectivity interaction (KinomeScan (DiscoverX)) EUB0000607a WEE1; conditions: at 10 µM
# Wee1-like protein kinase (Homo sapiens), sequence (P30291 whole entry, looked up): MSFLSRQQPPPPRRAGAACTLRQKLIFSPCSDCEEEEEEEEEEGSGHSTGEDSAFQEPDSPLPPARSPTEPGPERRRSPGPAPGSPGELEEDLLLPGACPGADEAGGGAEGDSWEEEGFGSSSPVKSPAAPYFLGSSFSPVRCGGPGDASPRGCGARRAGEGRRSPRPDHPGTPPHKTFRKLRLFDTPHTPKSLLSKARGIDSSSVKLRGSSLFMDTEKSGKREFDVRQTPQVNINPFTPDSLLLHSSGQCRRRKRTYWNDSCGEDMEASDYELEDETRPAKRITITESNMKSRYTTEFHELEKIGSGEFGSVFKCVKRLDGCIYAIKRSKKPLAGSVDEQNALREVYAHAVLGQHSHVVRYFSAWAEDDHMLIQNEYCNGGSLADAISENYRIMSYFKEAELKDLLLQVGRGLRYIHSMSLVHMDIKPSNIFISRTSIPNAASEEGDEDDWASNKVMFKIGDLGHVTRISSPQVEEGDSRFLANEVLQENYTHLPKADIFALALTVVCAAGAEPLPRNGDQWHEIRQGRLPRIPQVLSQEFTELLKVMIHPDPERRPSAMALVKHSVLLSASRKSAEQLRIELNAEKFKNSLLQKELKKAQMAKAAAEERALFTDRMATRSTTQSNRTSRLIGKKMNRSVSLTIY
compound,measurement,setting,value
CN(C)CCOc1ccc(-c2nc(-c3ccncc3)c(-c3ccc4c(c3)CC/C4=N\O)[nH]2)cc1,% of control,[1],87%
Nc1cnc(N2CCc3cc(S(=O)(=O)Nc4c(F)cc(Cl)cc4F)cc(N4CCCC4=O)c32)nc1 [TP-020n],% of control,[2],95%
CNC(=O)Nc1ccc(-c2nc(N3CC4CCC(C3)O4)c3cnn(C4CCC5(CC4)OCCO5)c3n2)cc1,% of control,[3],79%
